Test results reported in the supplement of paper PMC10307832.

Legend:
Test in all cases: relative viability (nuclei count vs DMSO), 5 days (fraction); higher = more cells survive
Pazopanib + Linsitinib = compound: Cc1ccc(Nc2nccc(N(C)c3ccc4c(C)n(C)nc4c3)n2)cc1S(N)(=O)=O [Pazopanib] + C[C@]1(O)C[C@@H](c2nc(-c3ccc4ccc(-c5ccccc5)nc4c3)c3c(N)nccn32)C1 [Linsitinib] (partner 1 µM)
In short: (§1)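 Relative viability divides the nuclei count in treated wells by that in vehicle wells. Lung cancer cell lines were seeded in 1536-well plates, dosed by pin tool the next day, and fixed and stained after 5 days in one step with final 0.05% Triton X-100, 1% formaldehyde and 1 ug/ml Hoechst. Dosing was a single drug or a fixed anchor-drug dose plus five library-drug doses (not always all listed) in √10 steps, and values are medians of duplicate plates imaged at 4×.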

Pazopanib + Olaparib = compound: Cc1ccc(Nc2nccc(N(C)c3ccc4c(C)n(C)nc4c3)n2)cc1S(N)(=O)=O [Pazopanib] + O=C(c1cc(Cc2n[nH]c(=O)c3ccccc23)ccc1F)N1CCN(C(=O)C2CC2)CC1 [Olaparib] (partner 8 µM)
In short: as §1

Ponatinib + Vorinostat = compound: Cc1ccc(C(=O)Nc2ccc(CN3CCN(C)CC3)c(C(F)(F)F)c2)cc1C#Cc1cnc2cccnn12 [Ponatinib] + O=C(CCCCCCC(=O)Nc1ccccc1)NO [Vorinostat] (partner 1 µM)
In short: as §1

Pazopanib + Luminespib = compound: Cc1ccc(Nc2nccc(N(C)c3ccc4c(C)n(C)nc4c3)n2)cc1S(N)(=O)=O [Pazopanib] + CCNC(=O)c1noc(-c2cc(C(C)C)c(O)cc2O)c1-c1ccc(CN2CCOCC2)cc1 [Luminespib] (partner 0.01 µM)
In short: as §1

| Cell Line | relative viability (Pazopanib + Linsitinib; first compound 0.01 µM) | relative viability (Pazopanib + Linsitinib; first compound 0.03162 µM) | relative viability (Pazopanib + Linsitinib; first compound 0.1 µM) | relative viability (Pazopanib + Linsitinib; first compound 0.3162 µM) | relative viability (Pazopanib + Linsitinib; first compound 1 µM) | relative viability (Pazopanib + Olaparib; first compound 0.01 µM) | relative viability (Pazopanib + Olaparib; first compound 0.03162 µM) | relative viability (Pazopanib + Olaparib; first compound 0.1 µM) | relative viability (Pazopanib + Olaparib; first compound 0.3162 µM) | relative viability (Pazopanib + Olaparib; first compound 1 µM) | relative viability (Ponatinib + Vorinostat; first compound 0.002 µM) | relative viability (Ponatinib + Vorinostat; first compound 0.006325 µM) | relative viability (Ponatinib + Vorinostat; first compound 0.06325 µM) | relative viability (Ponatinib + Vorinostat; first compound 0.2 µM) | relative viability (Pazopanib + Luminespib; first compound 0.03162 µM) | relative viability (Pazopanib + Luminespib; first compound 0.1 µM) | relative viability (Pazopanib + Luminespib; first compound 0.3162 µM) | relative viability (Pazopanib + Luminespib; first compound 1 µM) | relative viability (Pazopanib + Luminespib; first compound 0.01 µM) |
| --- | --- | --- | --- | --- | --- | --- | --- | --- | --- | --- | --- | --- | --- | --- | --- | --- | --- | --- | --- |
| BEN | 0.819 | 0.969 | 0.894 | 0.956 | 0.898 | 1.06 | 1.29 | 1.11 | 0.943 | 0.931 | 0.562 | 0.631 | 0.666 | 0.546 | 0.328 | 0.246 | 0.364 | 0.352 | – |
| EMC-BAC-2 | 0.758 | 0.855 | 0.864 | 0.84 | 0.803 | – | 0.476 | 0.457 | 0.43 | 0.43 | 0.288 | 0.337 | 0.427 | 0.368 | 1.2 | 1.16 | 1.14 | 1.25 | – |
| LU99A | 0.377 | 0.522 | 0.589 | 0.565 | 0.52 | – | 0.243 | 0.313 | 0.275 | 0.267 | 0.439 | 0.519 | 0.535 | 0.611 | 0.226 | 0.244 | 0.279 | 0.258 | 0.245 |
| ABC-1 | 0.835 | 0.917 | 0.751 | 0.738 | 0.779 | 1.01 | 1.15 | 0.959 | 0.946 | 0.782 | 0.786 | 1.06 | 0.988 | 0.994 | 0.672 | – | 0.41 | 0.961 | 0.627 |
| NCI-H358 | 0.875 | 0.626 | 0.82 | 0.993 | 0.821 | 0.757 | 0.662 | 0.629 | 0.639 | 0.599 | 0.644 | 0.634 | 0.669 | 0.551 | 0.374 | 0.284 | 0.337 | 0.441 | 0.398 |
| NCI-H1299 | 0.902 | 1.02 | 1.01 | 0.97 | 0.932 | 1 | 0.961 | 0.934 | 0.993 | 0.865 | – | – | – | – | – | – | – | – | – |
| EBC-1 | 0.964 | 0.979 | 0.977 | 0.922 | 0.979 | 0.696 | 0.754 | 0.696 | 0.751 | 0.752 | – | – | – | – | – | – | – | – | – |
| NCI-H2405 | 0.729 | 1.12 | 1 | 1.12 | 1.02 | 0.824 | 0.89 | 0.958 | 0.907 | 0.983 | 0.896 | 0.906 | 1.01 | 0.822 | 0.837 | 0.821 | 0.815 | 0.73 | 0.728 |
| NCI-H1993 | 0.717 | 0.757 | 0.726 | 0.638 | 0.852 | – | 1.03 | 1.21 | 1.09 | 1.15 | 0.783 | 1.19 | 0.962 | 0.734 | 0.728 | 0.885 | 0.885 | 0.913 | – |
| NCI-H441 | 0.536 | 0.528 | 0.558 | 0.5 | 0.612 | 0.558 | 0.519 | 0.511 | 0.429 | 0.611 | 0.647 | 0.675 | 0.822 | 0.757 | 0.485 | 0.311 | 0.274 | 0.317 | 0.343 |
| PC-14 | 0.971 | 1 | 0.961 | 0.985 | 1 | 0.335 | 0.329 | 0.371 | 0.235 | 0.319 | 0.68 | 0.668 | 0.9 | 0.647 | 0.177 | 0.173 | 0.177 | 0.142 | 0.155 |
| NCI-H1648 | – | – | – | – | – | – | – | 0.61 | 0.515 | 0.419 | 0.381 | 0.335 | 0.455 | 0.462 | – | – | – | – | – |
| NCI-H1792 | – | 0.534 | 0.601 | 0.522 | 0.588 | – | 0.384 | 0.435 | 0.483 | 0.384 | – | – | – | – | 0.394 | 0.476 | 0.423 | 0.422 | – |
| ChaGo-K-1 | – | – | – | – | – | 0.473 | 0.447 | 0.413 | 0.413 | 0.357 | 0.699 | 0.732 | 0.664 | 0.648 | 0.595 | 0.586 | 0.492 | 0.574 | 0.632 |
| NCI-H2170 | – | – | – | – | – | 0.669 | 0.561 | 0.693 | 0.547 | 0.56 | 0.679 | 0.808 | 0.843 | 0.781 | 0.766 | 0.712 | 0.532 | 0.627 | 0.675 |
| A549 | 0.452 | 0.638 | 0.591 | 0.598 | 0.757 | 0.248 | 0.301 | 0.283 | 0.297 | 0.36 | – | – | – | – | – | – | – | – | – |
| NCI-H1563 | 1.13 | 1.18 | 1.25 | 1.3 | 1.18 | – | – | – | – | – | – | – | – | – | 0.507 | 0.497 | 0.519 | 0.526 | 0.476 |
| NCI-H522 | – | – | – | – | – | 0.587 | 0.617 | 0.678 | 0.707 | 0.642 | 0.853 | 0.964 | 0.95 | 0.928 | 0.912 | 1.13 | 1.06 | 1.07 | – |
| HCC-78 | 0.403 | 0.578 | 0.435 | 0.454 | 0.668 | – | 0.87 | 0.778 | 0.906 | 0.995 | 0.458 | 0.486 | 0.497 | 0.406 | – | – | – | – | – |
| IA-LM | 0.428 | 0.553 | 0.527 | 0.613 | 0.622 | 0.719 | 0.909 | 0.925 | 0.774 | 0.658 | 0.913 | 0.875 | 0.861 | 0.783 | – | – | – | – | – |
| NCI-H1703 | 0.441 | – | 0.264 | 0.243 | 0.301 | 0.465 | – | 0.223 | 0.244 | 0.194 | – | – | – | – | – | – | – | – | – |
| SW 900 | – | – | – | – | – | 0.942 | 1.07 | – | 0.915 | 0.945 | 0.382 | 0.516 | 0.591 | 0.525 | 0.177 | 0.177 | 0.177 | 0.164 | 0.153 |
